According to patent US20080311048A1, “Imaging Agent” (ISIS INNOVATION LTD., priority 2005, published 2008):

Test system: left hemisphere of rat brains injected with Interleukin-1β (selectin expression)
Experiment: MRI scans of rat brains after interleukin-1β injection into the left hemisphere
Settings: in vivo
Experimental: The magnetic particles of the present invention can be used in a number of different methods. In particular, sugars conjugated to ultra small super paramagnetic iron oxide provide more sensitive detection of cerebroendothelial cell activation than know contrast agents such as Gd-DTPA-B(sLEex)A. In particular conjugated magnetic particles in accordance with the present invention were used in MRI scans. Interleukin-1β was injected into the left hemisphere of rat brains. Interleukin beta was used to induce an inflammatory response in the left hemispheres. All samples were subjected to MRI scans. Controls were carried out using Gd alone, or superparamagnetic particles alone. Two different conjugates, one of which having a disaccharide and one of which having Sialyl Lewis X, both in accordance with the present invention were tested. […] The control with Gd (shown in FIG. 2) confirmed that there was no breakdown of the blood brain barrier. […] Thus, the conjugates of the present invention allowed imaging of the areas of the brain that had been injected with interleukin-1β, and which would be expected to show greater levels of selectin expression.

Sialyl Lewis X
MRI scan: asymmetry between left and right cranial hemispheres: asymmetry, being darker in the left hemisphere than the right
